The values below come from patent publication EP0041795A2, “Injectable composition of rapamycin” (AYERST, MCKENNA AND HARRISON INC., priority 1980, dated 1981).

A short description of this data set: Solubility of rapamycin. The format is physicochemical.

As to `CO[C@H]1C[C@@H]2CC[C@@H](C)[C@@](O)(O2)C(=O)C(=O)N2CCCC[C@H]2C(=O)O[C@H]([C@H](C)C[C@@H]2CC[C@@H](O)[C@H](OC)C2)CC(=O)[C@H](C)/C=C(\C)[C@@H](O)[C@@H](OC)C(=O)[C@H](C)C[C@H](C)/C=C/C=C/C=C/1C` [Rapamycin], the “solubility in aqueous solutions” value (aqueous solutions) was “virtually insoluble”. Also, the solubility in surfactants result (most surfactants, including the nonionic surfactants) is listed as “insoluble”. In addition, the “solubility in polyoxyethylated glycerin hydroxy fatty acids” value (rapamycin per se, polyoxyethylated glycerin hydroxy fatty acids) is “does not readily go into solution”.
